Test results as given in patent publication US5530126A, “Process for the preparation of substituted 6-(pyrazol-3yl)-1,4-benzoxazin-3-ones” (Monsanto Company, priority 1994, dated 1996).

Experiments:
Format in all cases: in vivo
Indian Mustard [1] = test: Post-emergence herbicide test; conditions: Brassica juncea, read-out: % plant inhibition (Inmu); for inhibition at 1120 g/ha: 1.12 kg/ha; for inhibition at 11210 g/ha: 11.21 kg/ha
Procedure, shortened: (§1)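 Post-emergence greenhouse spray: 2–3-wk-old plants in soil pans; atomizer at 170.3 kPa (10 psig); 1870 L/Ha carrier volume, ~0.4% v/v emulsifier. Read-out is % inhibition vs control at 10–14 d (usually 11 d), occasionally also 24–28 d.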

Wild buckwheat [2] = test: Post-emergence herbicide test; conditions: Fallopia convolvulus, read-out: % plant inhibition (Wibw); for inhibition at 1120 g/ha: 1.12 kg/ha; for inhibition at 11210 g/ha: 11.21 kg/ha
Procedure, shortened: as §1

Cocklebur [3] = test: Post-emergence herbicide test; conditions: Xanthium strumarium, read-out: % plant inhibition (Cobu); for inhibition at 1120 g/ha: 1.12 kg/ha; for inhibition at 11210 g/ha: 11.21 kg/ha
Procedure, shortened: as §1

Seedling johnsongrass [4] = test: Post-emergence herbicide test; conditions: Sorghum halepense, read-out: % plant inhibition (Sejg); for inhibition at 1120 g/ha: 1.12 kg/ha; for inhibition at 11210 g/ha: 11.21 kg/ha
Procedure, shortened: as §1

Velvetleaf [5] = test: Post-emergence herbicide test; conditions: Abutilon theophrasti, read-out: % plant inhibition (Vele); for inhibition at 1120 g/ha: 1.12 kg/ha; for inhibition at 11210 g/ha: 11.21 kg/ha
Procedure, shortened: as §1

Downy Brome [6] = test: Post-emergence herbicide test; conditions: Bromus tectorum, read-out: % plant inhibition (Dobr); for inhibition at 1120 g/ha: 1.12 kg/ha; for inhibition at 11210 g/ha: 11.21 kg/ha
Procedure, shortened: as §1

Annual bluegrass [7] = test: Post-emergence herbicide test; conditions: read-out: % plant inhibition (Anbg); for inhibition at 1120 g/ha: 1.12 kg/ha; for inhibition at 11210 g/ha: 11.21 kg/ha
Procedure, shortened: as §1

Barnyardgrass [8] = test: Post-emergence herbicide test; conditions: Echinochloa crus-galli, read-out: % plant inhibition (Bygr); for inhibition at 1120 g/ha: 1.12 kg/ha; for inhibition at 11210 g/ha: 11.21 kg/ha
Procedure, shortened: as §1

Morningglory [9] = test: Post-emergence herbicide test; conditions: Ipomoea, read-out: % plant inhibition (Mogl); for inhibition at 1120 g/ha: 1.12 kg/ha; for inhibition at 11210 g/ha: 11.21 kg/ha
Procedure, shortened: as §1

Yellow nutsedge [10] = test: Post-emergence herbicide test; conditions: Cyperus, read-out: % plant inhibition (Yens); for inhibition at 1120 g/ha: 1.12 kg/ha; for inhibition at 11210 g/ha: 11.21 kg/ha
Procedure, shortened: as §1

Indian Mustard [11] = test: Pre-emergence herbicide test; conditions: Brassica juncea, read-out: % plant inhibition (Inmu); for inhibition at 1120 g/ha: 1.12 kg/ha; for inhibition at 11210 g/ha: 11.21 kg/ha
Procedure, shortened: (§2)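 Pre-emergence greenhouse soil test. Compound applied to seeded soil surface before covering with untreated topsoil. Percent inhibition scored around day 11.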

Wild buckwheat [12] = test: Pre-emergence herbicide test; conditions: Fallopia convolvulus, read-out: % plant inhibition (Wibw); for inhibition at 1120 g/ha: 1.12 kg/ha; for inhibition at 11210 g/ha: 11.21 kg/ha
Procedure, shortened: as §2

Cocklebur [13] = test: Pre-emergence herbicide test; conditions: Xanthium strumarium, read-out: % plant inhibition (Cobu); for inhibition at 1120 g/ha: 1.12 kg/ha; for inhibition at 11210 g/ha: 11.21 kg/ha
Procedure, shortened: as §2

Seedling johnsongrass [14] = test: Pre-emergence herbicide test; conditions: Sorghum halepense, read-out: % plant inhibition (Sejg); for inhibition at 1120 g/ha: 1.12 kg/ha; for inhibition at 11210 g/ha: 11.21 kg/ha
Procedure, shortened: as §2

Velvetleaf [15] = test: Pre-emergence herbicide test; conditions: Abutilon theophrasti, read-out: % plant inhibition (Vele); for inhibition at 1120 g/ha: 1.12 kg/ha; for inhibition at 11210 g/ha: 11.21 kg/ha
Procedure, shortened: as §2

Downy Brome [16] = test: Pre-emergence herbicide test; conditions: Bromus tectorum, read-out: % plant inhibition (Dobr); for inhibition at 1120 g/ha: 1.12 kg/ha; for inhibition at 11210 g/ha: 11.21 kg/ha
Procedure, shortened: as §2

Annual bluegrass [17] = test: Pre-emergence herbicide test; conditions: read-out: % plant inhibition (Anbg); for inhibition at 1120 g/ha: 1.12 kg/ha; for inhibition at 11210 g/ha: 11.21 kg/ha
Procedure, shortened: as §2

Barnyardgrass [18] = test: Pre-emergence herbicide test; conditions: Echinochloa crus-galli, read-out: % plant inhibition (Bygr); for inhibition at 1120 g/ha: 1.12 kg/ha; for inhibition at 11210 g/ha: 11.21 kg/ha
Procedure, shortened: as §2

Morningglory [19] = test: Pre-emergence herbicide test; conditions: Ipomoea, read-out: % plant inhibition (Mogl); for inhibition at 1120 g/ha: 1.12 kg/ha; for inhibition at 11210 g/ha: 11.21 kg/ha
Procedure, shortened: as §2

Yellow nutsedge [20] = test: Pre-emergence herbicide test; conditions: Cyperus, read-out: % plant inhibition (Yens); for inhibition at 1120 g/ha: 1.12 kg/ha; for inhibition at 11210 g/ha: 11.21 kg/ha
Procedure, shortened: as §2

CC(C)OC(=O)COc1cc(-c2nn(C)c(C(F)(F)Cl)c2Cl)c(F)cc1Cl [Compound 285] gave an inhibition at 1120 g/ha (Indian Mustard [1]) of 100%, an inhibition at 1120 g/ha (Wild buckwheat [2]) of 100% and an inhibition at 1120 g/ha (Cocklebur [3]) of 100%. It also gave an inhibition at 1120 g/ha (Seedling johnsongrass [4]) of 50%, an inhibition at 1120 g/ha (Velvetleaf [5]) of 100% and an inhibition at 1120 g/ha (Downy Brome [6]) of 40%. For the same compound, the inhibition at 1120 g/ha (Annual bluegrass [7]) was 30%, the inhibition at 1120 g/ha (Barnyardgrass [8]) was 70% and the inhibition at 1120 g/ha (Morningglory [9]) was 100%. The inhibition at 1120 g/ha (Yellow nutsedge [10]) was 40%, the inhibition at 1120 g/ha (Indian Mustard [11]) was 10% and the inhibition at 1120 g/ha (Wild buckwheat [12]) was 80%. It also gave an inhibition at 1120 g/ha (Cocklebur [13]) of 80%, an inhibition at 1120 g/ha (Seedling johnsongrass [14]) of 0% and an inhibition at 1120 g/ha (Velvetleaf [15]) of 100%. For the same compound, the inhibition at 1120 g/ha (Downy Brome [16]) was 0%, the inhibition at 1120 g/ha (Annual bluegrass [17]) was 0% and the inhibition at 1120 g/ha (Barnyardgrass [18]) was 50%. It also gave an inhibition at 1120 g/ha (Morningglory [19]) of 100% and an inhibition at 1120 g/ha (Yellow nutsedge [20]) of 0%.
Cn1nc(-c2cc(Oc3ccc(C(F)(F)F)cc3Cl)c(Cl)cc2F)c(Cl)c1C(F)(F)F [Compound 203] gave an inhibition at 11210 g/ha (Indian Mustard [1]) of 60%, an inhibition at 11210 g/ha (Wild buckwheat [2]) of 90% and an inhibition at 11210 g/ha (Cocklebur [3]) of 60%. For the same compound, the inhibition at 11210 g/ha (Seedling johnsongrass [4]) was 60%, the inhibition at 11210 g/ha (Velvetleaf [5]) was 100% and the inhibition at 11210 g/ha (Downy Brome [6]) was 30%. The inhibition at 11210 g/ha (Annual bluegrass [7]) was 20%, the inhibition at 11210 g/ha (Barnyardgrass [8]) was 50% and the inhibition at 11210 g/ha (Morningglory [9]) was 60%. For the same compound, the inhibition at 11210 g/ha (Yellow nutsedge [10]) was 0%, the inhibition at 11210 g/ha (Indian Mustard [11]) was 0% and the inhibition at 11210 g/ha (Wild buckwheat [12]) was 0%. The inhibition at 11210 g/ha (Cocklebur [13]) was 20%, the inhibition at 11210 g/ha (Seedling johnsongrass [14]) was 20% and the inhibition at 11210 g/ha (Velvetleaf [15]) was 0%. It also gave an inhibition at 11210 g/ha (Downy Brome [16]) of 10%, an inhibition at 11210 g/ha (Annual bluegrass [17]) of 0% and an inhibition at 11210 g/ha (Barnyardgrass [18]) of 0%. The inhibition at 11210 g/ha (Morningglory [19]) was 10% and the inhibition at 11210 g/ha (Yellow nutsedge [20]) was 0%.
Compound CC(C)OC(=O)COCc1cc(-c2nn(C)c(C(F)(F)F)c2Cl)c(F)cc1Cl [Compound 119] has an inhibition at 11210 g/ha (Indian Mustard [1]) of 100%, an inhibition at 11210 g/ha (Wild buckwheat [2]) of 100% and an inhibition at 11210 g/ha (Cocklebur [3]) of 100%. It also gave an inhibition at 11210 g/ha (Seedling johnsongrass [4]) of 100%, an inhibition at 11210 g/ha (Velvetleaf [5]) of 100% and an inhibition at 11210 g/ha (Downy Brome [6]) of 100%. It also gave an inhibition at 11210 g/ha (Annual bluegrass [7]) of 100%, an inhibition at 11210 g/ha (Barnyardgrass [8]) of 100% and an inhibition at 11210 g/ha (Morningglory [9]) of 100%. It also gave an inhibition at 11210 g/ha (Yellow nutsedge [10]) of 20%, an inhibition at 11210 g/ha (Indian Mustard [11]) of 100% and an inhibition at 11210 g/ha (Wild buckwheat [12]) of 100%. The inhibition at 11210 g/ha (Cocklebur [13]) was 100%, the inhibition at 11210 g/ha (Seedling johnsongrass [14]) was 80% and the inhibition at 11210 g/ha (Velvetleaf [15]) was 100%. The inhibition at 11210 g/ha (Downy Brome [16]) was 80%, the inhibition at 11210 g/ha (Annual bluegrass [17]) was 10% and the inhibition at 11210 g/ha (Barnyardgrass [18]) was 100%. For the same compound, the inhibition at 11210 g/ha (Morningglory [19]) was 100% and the inhibition at 11210 g/ha (Yellow nutsedge [20]) was 70%.
With CCOCc1cc(-c2nn(C)c(C(F)(F)F)c2Cl)c(F)cc1Cl [Compound 118] the inhibition at 1120 g/ha (Indian Mustard [1]) was 30%, the inhibition at 1120 g/ha (Wild buckwheat [2]) was 100% and the inhibition at 1120 g/ha (Cocklebur [3]) was 80%. For the same compound, the inhibition at 1120 g/ha (Seedling johnsongrass [4]) was 30%, the inhibition at 1120 g/ha (Velvetleaf [5]) was 90% and the inhibition at 1120 g/ha (Downy Brome [6]) was 20%. It also gave an inhibition at 1120 g/ha (Annual bluegrass [7]) of 30%, an inhibition at 1120 g/ha (Barnyardgrass [8]) of 30% and an inhibition at 1120 g/ha (Morningglory [9]) of 60%. The inhibition at 1120 g/ha (Yellow nutsedge [10]) was 30%, the inhibition at 1120 g/ha (Indian Mustard [11]) was 100% and the inhibition at 1120 g/ha (Wild buckwheat [12]) was 100%. It also gave an inhibition at 1120 g/ha (Cocklebur [13]) of 80%, an inhibition at 1120 g/ha (Seedling johnsongrass [14]) of 90% and an inhibition at 1120 g/ha (Velvetleaf [15]) of 90%. The inhibition at 1120 g/ha (Downy Brome [16]) was 100%, the inhibition at 1120 g/ha (Annual bluegrass [17]) was 100% and the inhibition at 1120 g/ha (Barnyardgrass [18]) was 90%. It also gave an inhibition at 1120 g/ha (Morningglory [19]) of 100% and an inhibition at 1120 g/ha (Yellow nutsedge [20]) of 0%.
